Data taken from ChEMBL document CHEMBL1201862, “PubChem BioAssay data set” (2004).
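Five compound concentrations were applied to cells in 96-well plates for 48 hours; endpoints were derived by simple linear interpolation of the resulting dose-response curve. Abbreviation: GI50, concentration required for 50% inhibition of growth.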 The source made the active and inactive calls. No stated cut-off is given here; in the data, active = GI50 up to about 1.1 µM and inactive = higher.

Legend:
Assay in all cases: inhibition of tumour cell growth, NCI panel, 48 h
[1] = tested on: HOP-62
[2] = tested on: SW-620
[3] = tested on: SNB-19
[4] = tested on: HT-29
[5] = tested on: RPMI-8226
[6] = tested on: HOP-92
[7] = tested on: K562
[8] = tested on: Malme-3M
[9] = tested on: MOLT-4
[10] = tested on: SK-MEL-28
[11] = tested on: OVCAR-8
[12] = tested on: SK-MEL-2
[13] = tested on: COLO 205
[14] = tested on: SK-MEL-5
[15] = tested on: CAKI-1
[16] = tested on: CCRF-CEM
[17] = tested on: SF-295
[18] = tested on: UACC-62
[19] = tested on: NCI-H23
[20] = tested on: RXF 393

Measured: GI50

Nc1n[nH]c2nc3ccccc3nc12 [QUINOXALINE1]
inactive: [1] 61 µM | [2] 86.7 µM | [3] > 100 µM | [4] 59.6 µM | [5] 36.1 µM | [6] > 100 µM | [7] > 100 µM | [8] > 100 µM | [9] 61.1 µM | [10] > 100 µM | [11] > 100 µM | [12] > 100 µM | [13] 61.8 µM | [14] > 100 µM | [15] 31.9 µM | [16] 34.4 µM | [17] > 100 µM | [18] 45 µM | [19] > 100 µM | [20] 27.9 µM

Cc1ccc(S(N)(C(=O)Nc2cccc3ccccc23)[N+](=O)[O-])cc1 (stereo not given)
inactive: [1] > 100 µM | [2] > 100 µM | [3] 92.5 µM | [4] > 100 µM | [5] 48.6 µM | [6] > 100 µM | [7] 55 µM | [8] > 100 µM | [9] 29.5 µM | [10] > 100 µM | [11] > 100 µM | [12] > 100 µM | [13] > 100 µM | [14] 93.3 µM | [15] > 100 µM | [16] 42.3 µM | [17] 89.7 µM | [18] > 100 µM | [19] > 100 µM | [20] > 100 µM

COc1cc2c(cc1OC)-c1cc3ccccc3c(=O)n1CC2
inactive: [1] 5.19 µM | [2] 29.1 µM | [3] 43.7 µM | [4] 24.8 µM | [5] 13.7 µM | [6] 14.1 µM | [7] 26.1 µM | [8] 16.4 µM | [9] 26.1 µM | [10] 27.7 µM | [11] 29 µM | [12] 11.7 µM | [13] 37.8 µM | [14] 7.26 µM | [15] 27.2 µM | [16] 25 µM | [17] 15.3 µM | [18] 18.2 µM | [19] 37.5 µM | [20] 2.33 µM
